From PubChem BioAssay (NCI)
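Growth conditions: 96-well plates. Treatment: test compound, 48 hours, 5 concentrations. Analysis: linear interpolation between bracketing concentrations; unreached endpoints set to highest concentration. GI50 marks 50% less growth. TGI: concentration producing complete growth inhibition.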

Columns and labels:
Test in all cases: growth of human tumour cells (NCI), 48 h
[1] = test system: RPMI-8226 leukemia
[2] = test system: OVCAR-5 ovarian
[3] = test system: SW-620 colon
[4] = test system: HCT-116 colon
[5] = test system: A498 renal
[6] = test system: 786-0 renal
[7] = test system: SF-295 CNS
[8] = test system: SNB-19 CNS
[9] = test system: A549 NSCLC
[10] = test system: UO-31 renal
[11] = test system: MDA-MB-231 breast
[12] = test system: HCT-15 colon
[13] = test system: BT-549 breast
[14] = test system: LOX IMVI melanoma
[15] = test system: HL-60(TB) leukemia
[16] = test system: ACHN renal
[17] = test system: NCI/ADR-RES ovarian
[18] = test system: SR leukemia
[19] = test system: SF-268 CNS
[20] = test system: SN12C renal
[21] = test system: OVCAR-8 ovarian
[22] = test system: NCI-H226 lung
[23] = test system: SK-MEL-2 melanoma
[24] = test system: T-47D breast
[25] = test system: NCI-H522 lung
[26] = test system: UACC-257 melanoma
[27] = test system: MCF7 breast
[28] = test system: SF-539 CNS
[29] = test system: DU-145 prostate
[30] = test system: NCI-H460 lung
[31] = test system: HS 578T breast
[32] = test system: TK-10 renal
[33] = test system: UACC-62 melanoma
[34] = test system: KM12 colon
[35] = test system: HOP-62 NSCLC
[36] = test system: SNB-75 CNS
[37] = test system: K-562 leukemia
[38] = test system: CAKI-1 renal
[39] = test system: HT29 colon
[40] = test system: SK-OV-3 ovarian
[41] = test system: CCRF-CEM leukemia
[42] = test system: RXF 393 renal
[43] = test system: SK-MEL-28 melanoma
[44] = test system: HCC-2998 colon
[45] = test system: OVCAR-3 ovarian
[46] = test system: PC-3 prostate
[47] = test system: MDA-MB-435
[48] = test system: SK-MEL-5 melanoma
[49] = test system: IGROV1 ovarian
[50] = test system: MALME-3M melanoma
[51] = test system: NCI-H23 lung
[52] = test system: U251 CNS
[53] = test system: M14 melanoma
[54] = test system: OVCAR-4 ovarian
[55] = test system: MOLT-4 leukemia
[56] = test system: COLO 205 colon

**Q.** `COc1ccc(/C=C2\CN(Cc3cn(CCNc4ccnc5cc(Cl)ccc45)nn3)C/C(=C\c3ccc(OC)c(OC)c3)C2=O)cc1OC` was tested. Which GI50 [1] did it give?
**A.** 3 µM

**Q.** And the TGI [1]?
**A.** 39 µM

**Q.** And the GI50 [2]?
**A.** 4.55 µM

**Q.** And the TGI [2]?
**A.** 21.5 µM

**Q.** And the GI50 [3]?
**A.** 2.32 µM

**Q.** What about the TGI [3] of the same compound?
**A.** 6.15 µM

**Q.** What about the GI50 [4] of the same compound?
**A.** 1.95 µM

**Q.** And the TGI [4]?
**A.** 3.85 µM

**Q.** What about the GI50 [5] of the same compound?
**A.** 2.53 µM

**Q.** What about the TGI [5] of the same compound?
**A.** 13.2 µM

**Q.** And the GI50 [6]?
**A.** 3.35 µM

**Q.** What about the TGI [6] of the same compound?
**A.** 12.4 µM

**Q.** And the GI50 [7]?
**A.** 2.41 µM

**Q.** And the TGI [7]?
**A.** 6.1 µM

**Q.** And the GI50 [8]?
**A.** 3.59 µM

**Q.** What about the TGI [8] of the same compound?
**A.** > 100 µM

**Q.** What about the GI50 [9] of the same compound?
**A.** 4.73 µM

**Q.** What about the TGI [9] of the same compound?
**A.** 40.4 µM

**Q.** What about the GI50 [10] of the same compound?
**A.** 14.5 µM

**Q.** What about the TGI [10] of the same compound?
**A.** 31 µM

**Q.** What about the GI50 [11] of the same compound?
**A.** 2.56 µM

**Q.** And the TGI [11]?
**A.** 7.68 µM

**Q.** What about the GI50 [12] of the same compound?
**A.** 6.87 µM

**Q.** And the TGI [12]?
**A.** 38.7 µM

**Q.** And the GI50 [13]?
**A.** 2.16 µM

**Q.** What about the TGI [13] of the same compound?
**A.** 4.84 µM

**Q.** And the GI50 [14]?
**A.** 2.1 µM

**Q.** And the TGI [14]?
**A.** 4.82 µM

**Q.** What about the GI50 [15] of the same compound?
**A.** 2.42 µM

**Q.** And the TGI [15]?
**A.** 9.37 µM

**Q.** And the GI50 [16]?
**A.** 5.25 µM

**Q.** And the TGI [16]?
**A.** 19.9 µM

**Q.** And the GI50 [17]?
**A.** > 100 µM

**Q.** What about the TGI [17] of the same compound?
**A.** > 100 µM

**Q.** And the GI50 [18]?
**A.** 2.04 µM

**Q.** And the TGI [18]?
**A.** > 100 µM

**Q.** And the GI50 [19]?
**A.** 3.36 µM

**Q.** What about the TGI [19] of the same compound?
**A.** 21.5 µM

**Q.** And the GI50 [20]?
**A.** 2.36 µM

**Q.** What about the TGI [20] of the same compound?
**A.** 6.79 µM

**Q.** And the GI50 [21]?
**A.** 3.94 µM

**Q.** What about the TGI [21] of the same compound?
**A.** > 100 µM

**Q.** And the GI50 [22]?
**A.** 4.04 µM

**Q.** What about the TGI [22] of the same compound?
**A.** 21 µM

**Q.** And the GI50 [23]?
**A.** 3.88 µM

**Q.** And the TGI [23]?
**A.** 26.6 µM

**Q.** And the GI50 [24]?
**A.** 5.05 µM

**Q.** What about the TGI [24] of the same compound?
**A.** > 100 µM

**Q.** What about the GI50 [25] of the same compound?
**A.** 2.24 µM

**Q.** What about the TGI [25] of the same compound?
**A.** 6.38 µM

**Q.** And the GI50 [26]?
**A.** 4.8 µM

**Q.** What about the TGI [26] of the same compound?
**A.** 23.1 µM

**Q.** And the GI50 [27]?
**A.** 3.3 µM

**Q.** And the TGI [27]?
**A.** 16 µM

**Q.** And the GI50 [28]?
**A.** 2.58 µM

**Q.** What about the TGI [28] of the same compound?
**A.** 8.14 µM

**Q.** What about the GI50 [29] of the same compound?
**A.** 3.48 µM

**Q.** What about the TGI [29] of the same compound?
**A.** 11 µM

**Q.** And the GI50 [30]?
**A.** 2.22 µM

**Q.** What about the TGI [30] of the same compound?
**A.** 5.74 µM

**Q.** And the GI50 [31]?
**A.** 6.49 µM

**Q.** And the TGI [31]?
**A.** > 100 µM

**Q.** And the GI50 [32]?
**A.** 4.96 µM

**Q.** What about the TGI [32] of the same compound?
**A.** 22 µM

**Q.** What about the GI50 [33] of the same compound?
**A.** 2.14 µM

**Q.** What about the TGI [33] of the same compound?
**A.** 5.39 µM

**Q.** And the GI50 [34]?
**A.** 1.87 µM

**Q.** And the TGI [34]?
**A.** 3.6 µM

**Q.** What about the GI50 [35] of the same compound?
**A.** 3.9 µM

**Q.** What about the TGI [35] of the same compound?
**A.** 26.2 µM

**Q.** And the GI50 [36]?
**A.** 6.67 µM

**Q.** What about the TGI [36] of the same compound?
**A.** 40.7 µM

**Q.** And the GI50 [37]?
**A.** 3.21 µM

**Q.** What about the TGI [37] of the same compound?
**A.** > 100 µM

**Q.** What about the GI50 [38] of the same compound?
**A.** 7.22 µM

**Q.** What about the TGI [38] of the same compound?
**A.** > 100 µM

**Q.** What about the GI50 [39] of the same compound?
**A.** 3.13 µM

**Q.** What about the TGI [39] of the same compound?
**A.** 8.82 µM

**Q.** What about the GI50 [40] of the same compound?
**A.** 4.66 µM

**Q.** What about the TGI [40] of the same compound?
**A.** 24.1 µM

**Q.** What about the GI50 [41] of the same compound?
**A.** 2.54 µM

**Q.** And the TGI [41]?
**A.** > 100 µM

**Q.** What about the GI50 [42] of the same compound?
**A.** 1.81 µM

**Q.** And the TGI [42]?
**A.** 3.62 µM

**Q.** What about the GI50 [43] of the same compound?
**A.** 2.29 µM

**Q.** And the TGI [43]?
**A.** 5.97 µM

**Q.** What about the GI50 [44] of the same compound?
**A.** 1.96 µM

**Q.** What about the TGI [44] of the same compound?
**A.** 3.62 µM

**Q.** What about the GI50 [45] of the same compound?
**A.** 2.8 µM

**Q.** What about the TGI [45] of the same compound?
**A.** 8.57 µM

**Q.** And the GI50 [46]?
**A.** 3.57 µM

**Q.** And the TGI [46]?
**A.** > 100 µM

**Q.** And the GI50 [47]?
**A.** 3.01 µM

**Q.** And the TGI [47]?
**A.** 19.1 µM

**Q.** And the GI50 [48]?
**A.** 1.72 µM

**Q.** And the TGI [48]?
**A.** 3.75 µM

**Q.** And the GI50 [49]?
**A.** 2.67 µM

**Q.** What about the TGI [49] of the same compound?
**A.** 7.09 µM

**Q.** What about the GI50 [50] of the same compound?
**A.** 2.78 µM

**Q.** And the TGI [50]?
**A.** 6.19 µM

**Q.** And the GI50 [51]?
**A.** 7.45 µM

**Q.** What about the TGI [51] of the same compound?
**A.** 37.8 µM

**Q.** What about the GI50 [52] of the same compound?
**A.** 3.2 µM

**Q.** What about the TGI [52] of the same compound?
**A.** 27.7 µM

**Q.** And the GI50 [53]?
**A.** 3.35 µM

**Q.** What about the TGI [53] of the same compound?
**A.** 12.5 µM

**Q.** And the GI50 [54]?
**A.** 4.07 µM

**Q.** And the TGI [54]?
**A.** > 100 µM

**Q.** What about the GI50 [55] of the same compound?
**A.** 3.5 µM

**Q.** And the TGI [55]?
**A.** 40.2 µM

**Q.** And the GI50 [56]?
**A.** 1.99 µM

**Q.** And the TGI [56]?
**A.** 3.9 µM
